ChEMBL document CHEMBL4028827, “Discovery of indazole aldosterone synthase (CYP11B2) inhibitors as potential treatments for hypertension” (Bioorg Med Chem Lett, 2017)

Experiments:
[1] = target: T1, Cytochrome P450 11B2, mitochondrial (Homo sapiens, UniProt P19099); assay: Inhibition of human CYP11B2-CLE9 expressed in Chinese hamster V79 cells using 11-deoxycorticosterone as substrate preincubated for 1 hr followed by substrate addition measured for 3 hrs by HTRF assay; assay type: cell-based
T1 sequence (P19099 whole entry): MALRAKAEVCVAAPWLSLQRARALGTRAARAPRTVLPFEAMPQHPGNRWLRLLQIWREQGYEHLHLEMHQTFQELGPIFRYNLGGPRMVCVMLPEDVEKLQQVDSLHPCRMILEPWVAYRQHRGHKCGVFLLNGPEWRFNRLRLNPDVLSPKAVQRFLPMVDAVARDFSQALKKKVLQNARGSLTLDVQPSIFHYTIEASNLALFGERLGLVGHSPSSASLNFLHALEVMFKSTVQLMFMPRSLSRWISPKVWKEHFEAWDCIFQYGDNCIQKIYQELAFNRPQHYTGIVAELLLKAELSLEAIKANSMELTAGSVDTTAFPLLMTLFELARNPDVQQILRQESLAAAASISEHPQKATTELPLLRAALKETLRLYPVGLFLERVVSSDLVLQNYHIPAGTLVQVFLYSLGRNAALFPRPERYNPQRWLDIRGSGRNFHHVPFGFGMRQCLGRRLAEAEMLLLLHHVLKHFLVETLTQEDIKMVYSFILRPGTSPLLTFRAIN

[2] = target: T2, Cytochrome P450 11B1, mitochondrial (Homo sapiens, UniProt P15538); assay: Inhibition of human CYP11B1-8C7 expressed in Chinese hamster V79 cells using 11-deoxycortisol as substrate preincubated for 1 hr followed by substrate addition measured for 3 hrs by HTRF assay; assay type: ADME, cell-based
T2 sequence (P15538 whole entry): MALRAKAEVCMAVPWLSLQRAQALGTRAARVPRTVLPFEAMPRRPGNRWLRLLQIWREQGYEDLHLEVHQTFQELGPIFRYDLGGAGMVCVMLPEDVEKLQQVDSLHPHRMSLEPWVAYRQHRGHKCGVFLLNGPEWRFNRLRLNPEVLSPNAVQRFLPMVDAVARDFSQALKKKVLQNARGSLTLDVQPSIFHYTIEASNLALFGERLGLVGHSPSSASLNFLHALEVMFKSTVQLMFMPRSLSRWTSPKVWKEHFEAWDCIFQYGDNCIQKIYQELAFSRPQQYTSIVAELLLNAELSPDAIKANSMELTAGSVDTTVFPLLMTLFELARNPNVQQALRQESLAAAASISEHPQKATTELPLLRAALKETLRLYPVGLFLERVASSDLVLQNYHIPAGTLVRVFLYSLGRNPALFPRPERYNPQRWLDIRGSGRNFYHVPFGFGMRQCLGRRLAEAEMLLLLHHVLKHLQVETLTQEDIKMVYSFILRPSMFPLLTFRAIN

[3] = Selectivity ratio of IC50 for human CYP11B1-8C7 expressed in Chinese hamster V79 cells to IC50 for human CYP11B2-CLE9 expressed in Chinese hamster V79 cells
[4] = Intrinsic clearance in rat liver microsomes at […] preincubated for 10 mins followed by NADPH addition measured after 45 mins by LC-MS analysis; assay type: ADME, microsome; conditions: read-out: CLH
[5] = target: T3, Cytochrome P450 11B2, mitochondrial (Rattus norvegicus, UniProt P30099); assay: Inhibition of rat CYP11B2-1F4 expressed in Chinese hamster V79 cells using 11-deoxycorticosterone as substrate preincubated for 1 hr followed by substrate addition measured for 3 hrs by HTRF assay; assay type: cell-based
T3 sequence (P30099 whole entry): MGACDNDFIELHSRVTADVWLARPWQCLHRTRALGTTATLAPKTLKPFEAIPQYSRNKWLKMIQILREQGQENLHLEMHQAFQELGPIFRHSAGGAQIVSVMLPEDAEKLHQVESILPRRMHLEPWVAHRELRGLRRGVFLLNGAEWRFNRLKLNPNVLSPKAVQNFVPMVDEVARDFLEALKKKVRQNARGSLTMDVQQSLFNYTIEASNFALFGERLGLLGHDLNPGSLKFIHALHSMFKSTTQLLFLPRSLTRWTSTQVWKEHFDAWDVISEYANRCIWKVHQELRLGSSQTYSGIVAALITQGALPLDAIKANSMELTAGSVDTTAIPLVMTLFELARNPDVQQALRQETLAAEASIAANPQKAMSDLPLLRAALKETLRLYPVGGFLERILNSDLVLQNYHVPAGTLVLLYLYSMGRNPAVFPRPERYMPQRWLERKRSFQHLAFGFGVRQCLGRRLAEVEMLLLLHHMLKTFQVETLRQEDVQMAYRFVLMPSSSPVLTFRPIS

[6] = target: T4, Steroid 17-alpha-hydroxylase/17,20 lyase (Homo sapiens, UniProt P05093); assay: Inhibition of human CYP17 expressed in African green monkey COS7 cells using 17-hydroxypregnenolone as substrate preincubated for 1 hr followed by substrate addition measured after 3 hrs by EIA; assay type: cell-based
T4 sequence (P05093 whole entry): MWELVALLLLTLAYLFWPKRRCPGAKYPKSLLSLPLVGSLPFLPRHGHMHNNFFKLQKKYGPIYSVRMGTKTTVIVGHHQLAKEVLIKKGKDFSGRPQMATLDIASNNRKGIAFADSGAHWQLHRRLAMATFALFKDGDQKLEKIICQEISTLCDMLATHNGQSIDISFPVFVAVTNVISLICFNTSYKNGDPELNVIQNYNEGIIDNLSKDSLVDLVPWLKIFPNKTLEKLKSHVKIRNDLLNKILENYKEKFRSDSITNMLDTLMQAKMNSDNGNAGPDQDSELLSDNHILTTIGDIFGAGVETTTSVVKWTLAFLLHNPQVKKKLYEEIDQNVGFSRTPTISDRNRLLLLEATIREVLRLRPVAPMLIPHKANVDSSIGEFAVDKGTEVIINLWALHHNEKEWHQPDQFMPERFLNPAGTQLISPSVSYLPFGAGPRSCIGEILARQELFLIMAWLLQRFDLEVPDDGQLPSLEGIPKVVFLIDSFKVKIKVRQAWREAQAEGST

Aromatase = target: T5, Aromatase (Homo sapiens, UniProt P11511); assay: Inhibition of CYP19 (unknown origin) using MFC as substrate and NADPH as cofactor preincubated for 10 mins with cofactor followed by substrate/enzyme addition measured after 30 mins
T5 sequence (P11511 whole entry): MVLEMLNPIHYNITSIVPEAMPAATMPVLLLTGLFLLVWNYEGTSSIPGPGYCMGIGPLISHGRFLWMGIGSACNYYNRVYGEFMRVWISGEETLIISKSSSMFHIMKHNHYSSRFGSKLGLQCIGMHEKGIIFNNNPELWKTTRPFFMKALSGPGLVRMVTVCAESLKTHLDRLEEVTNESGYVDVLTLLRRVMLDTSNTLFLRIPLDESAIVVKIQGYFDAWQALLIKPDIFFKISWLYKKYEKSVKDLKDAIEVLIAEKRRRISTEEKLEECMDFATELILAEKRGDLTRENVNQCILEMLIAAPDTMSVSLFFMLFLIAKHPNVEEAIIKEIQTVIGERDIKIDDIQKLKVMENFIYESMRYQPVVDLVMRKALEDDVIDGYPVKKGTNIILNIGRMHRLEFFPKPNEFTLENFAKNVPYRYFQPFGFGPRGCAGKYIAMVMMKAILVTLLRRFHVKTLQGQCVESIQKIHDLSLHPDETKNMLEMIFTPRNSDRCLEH

Steroid 21-hydroxylase = target: T6, Steroid 21-hydroxylase (Homo sapiens, UniProt P08686); assay: Inhibition of human CYP21 expressed in African green monkey COS7 cells using […] as substrate preincubated for 1 hr followed by substrate addition measured for 3 hrs by HTRF assay; assay type: cell-based
T6 sequence (P08686 whole entry): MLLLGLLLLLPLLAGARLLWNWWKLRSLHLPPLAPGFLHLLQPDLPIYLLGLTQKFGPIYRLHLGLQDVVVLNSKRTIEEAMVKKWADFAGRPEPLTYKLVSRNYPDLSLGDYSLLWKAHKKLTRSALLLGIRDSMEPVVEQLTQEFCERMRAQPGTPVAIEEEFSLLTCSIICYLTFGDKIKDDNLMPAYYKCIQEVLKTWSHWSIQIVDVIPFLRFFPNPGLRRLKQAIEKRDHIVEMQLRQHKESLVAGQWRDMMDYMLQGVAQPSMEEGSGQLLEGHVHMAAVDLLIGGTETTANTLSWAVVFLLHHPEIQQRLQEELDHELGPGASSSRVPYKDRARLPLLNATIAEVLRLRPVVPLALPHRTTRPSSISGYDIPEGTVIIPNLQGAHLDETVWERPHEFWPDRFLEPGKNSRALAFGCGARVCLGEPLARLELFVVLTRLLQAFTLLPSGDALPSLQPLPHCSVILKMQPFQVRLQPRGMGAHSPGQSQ

Cytochrome P450 3A4 = Cytochrome P450 3A4 (Homo sapiens, UniProt P08684); assay: Inhibition of hepatic CYP3A4 (unknown origin); assay type: ADME
Cytochrome P450 2C9 = Cytochrome P450 2C9 (Homo sapiens, UniProt P11712); assay: Inhibition of hepatic CYP2C9 (unknown origin); assay type: ADME
Cytochrome P450 2D6 = Cytochrome P450 2D6 (Homo sapiens, UniProt P10635); assay: Inhibition of hepatic CYP2D6 (unknown origin); assay type: ADME
Chain of Cytochrome P450 2D6 (P10635 whole entry): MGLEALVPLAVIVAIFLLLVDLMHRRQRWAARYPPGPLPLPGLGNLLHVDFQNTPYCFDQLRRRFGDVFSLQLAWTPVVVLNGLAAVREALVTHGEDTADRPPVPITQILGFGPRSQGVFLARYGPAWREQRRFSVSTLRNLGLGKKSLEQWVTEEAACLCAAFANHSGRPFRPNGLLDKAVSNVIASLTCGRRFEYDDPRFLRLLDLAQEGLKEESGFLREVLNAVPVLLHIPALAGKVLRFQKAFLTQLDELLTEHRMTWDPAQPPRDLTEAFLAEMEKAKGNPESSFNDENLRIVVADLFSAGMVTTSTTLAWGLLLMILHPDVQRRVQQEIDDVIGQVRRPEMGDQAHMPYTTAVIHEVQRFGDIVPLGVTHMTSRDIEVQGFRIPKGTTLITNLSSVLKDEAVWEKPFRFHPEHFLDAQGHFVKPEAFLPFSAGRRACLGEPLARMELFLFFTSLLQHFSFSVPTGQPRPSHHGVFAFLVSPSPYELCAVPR

Chain of Cytochrome P450 2C9 (P11712 whole entry): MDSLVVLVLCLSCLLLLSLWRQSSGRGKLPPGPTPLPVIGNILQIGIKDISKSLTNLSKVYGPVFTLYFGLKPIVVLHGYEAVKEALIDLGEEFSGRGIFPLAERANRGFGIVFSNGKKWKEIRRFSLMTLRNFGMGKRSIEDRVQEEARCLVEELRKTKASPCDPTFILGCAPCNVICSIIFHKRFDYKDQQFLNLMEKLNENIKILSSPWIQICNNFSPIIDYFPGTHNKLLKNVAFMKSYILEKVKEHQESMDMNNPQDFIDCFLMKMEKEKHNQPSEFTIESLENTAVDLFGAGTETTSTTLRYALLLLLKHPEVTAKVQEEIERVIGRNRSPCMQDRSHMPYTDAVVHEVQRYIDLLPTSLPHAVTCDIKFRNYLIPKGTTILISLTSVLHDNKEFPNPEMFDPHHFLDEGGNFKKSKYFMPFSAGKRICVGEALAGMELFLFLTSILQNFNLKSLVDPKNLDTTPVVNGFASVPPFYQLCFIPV
Chain of Cytochrome P450 3A4 (P08684 whole entry): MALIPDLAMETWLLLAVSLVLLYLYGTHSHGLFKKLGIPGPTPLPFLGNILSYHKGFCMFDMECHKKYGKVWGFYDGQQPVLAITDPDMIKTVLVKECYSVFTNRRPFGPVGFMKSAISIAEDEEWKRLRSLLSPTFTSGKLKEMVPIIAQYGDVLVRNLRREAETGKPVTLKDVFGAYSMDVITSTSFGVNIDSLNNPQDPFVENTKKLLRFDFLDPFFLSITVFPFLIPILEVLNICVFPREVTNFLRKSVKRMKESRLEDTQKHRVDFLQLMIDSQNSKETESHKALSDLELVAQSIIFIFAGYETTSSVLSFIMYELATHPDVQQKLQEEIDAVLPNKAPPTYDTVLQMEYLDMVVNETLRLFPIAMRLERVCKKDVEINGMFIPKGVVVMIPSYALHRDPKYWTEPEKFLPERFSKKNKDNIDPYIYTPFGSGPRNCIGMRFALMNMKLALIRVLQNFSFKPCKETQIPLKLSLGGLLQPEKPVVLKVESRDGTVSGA

Row | IC50 [1] | IC50 [2] | CLint scaled [4] | SMILES | Ratio IC50 [3] | other results
1 | 15 to 15.1 nM | 535 to 540 nM | < 20 mL/min/kg | CC(C)(O)c1cncc(-n2ncc3ccccc32)c1 | 36 | –
2 | 0.3 to 0.8 nM | 1.8 to 8.9 nM | < 20 mL/min/kg | CC(C)(O)c1cncc(-n2ncc3c(F)ccc(F)c32)c1 | 6 - 11 | –
3 | 300 to 304 nM | 8300 to 8330 nM | – | CC(C)(O)c1cncc(-n2nc(C(F)(F)F)c3ccccc32)c1 | >27 | –
4 | 78.5 to 79 nM | 1990 to 2000 nM | 83 mL/min/kg | CC(C)(O)c1cncc(-n2ncc3ccc(F)cc32)c1 | 25 | –
5 | 22 to 22.1 nM | – | – | COC(=O)c1cccc2c1cnn2-c1cncc(C(C)(C)O)c1 | – | –
6 | 217 to 220 nM | 8300 to 8330 nM | 43 mL/min/kg | Fc1ccc2c(cnn2-c2cccnc2)c1 | >38 | –
7 | 32.9 to 33 nM | 386 to 390 nM | – | Cc1nn(-c2cncc([C@@](C)(O)C(F)(F)F)c2)c2ccccc12 | 12 | IC50 [5]: 33 nM; IC50 [6]: > 10000 nM; IC50 (Aromatase): 6200 nM; IC50 (Steroid 21-hydroxylase): > 10000 nM; IC50 (Cytochrome P450 3A4): > 50000 nM; IC50 (Cytochrome P450 2C9): 3800 nM; IC50 (Cytochrome P450 2D6): > 50000 nM
8 | 1160 nM | 8300 to 8330 nM | – | CC(C)(O)c1cncc(-n2ncc3cc(C#N)ccc32)c1 | >7 | –
9 | 27 to 27.3 nM | 470 nM | – | CC(C)(O)c1cncc(-n2ncc3cc(Cl)ccc32)c1 | 17 | –
10 | 25 nM | 1400 to 1410 nM | – | COc1nn(-c2cncc(C(C)(C)O)c2)c2ccccc12 | 57 | –
11 | 44 to 44.1 nM | 1300 nM | – | COc1cncc(-n2ncc3cc(F)ccc32)c1 | 30 | –
12 | 88 to 88.3 nM | 1690 to 1700 nM | 300 mL/min/kg | Fc1ccc2c(cnn2-c2cncc(C(F)(F)F)c2)c1 | 19 | –
13 | 84.9 to 85 nM | 1000 nM | – | COc1ccc2c(cnn2-c2cncc(C(C)(C)O)c2)c1 | 12 | –
14 | 10.9 to 13 nM | 197 to 210 nM | 30 mL/min/kg | CC(C)(O)c1cncc(-n2ncc3cc(F)ccc32)c1 | 15 - 19 | –
15 | 0.9 nM | 10.7 to 11 nM | < 20 mL/min/kg | CC(C)(O)c1cncc(-n2ncc3cccc(F)c32)c1 | 12 | –

The next lines start with the compound.

Row | SMILES | IC50 [1] | IC50 [2] | CLint scaled [4] | Ratio IC50 [3] | other results
16 | Cc1nn(-c2cncc(C(C)(C)O)c2)c2cccc(F)c12 | 1.3 to 1.31 nM | 22 to 22.3 nM | – | 17 | IC50 [5]: 1.3 nM; IC50 [6]: > 10000 nM; IC50 (Aromatase): 6900 nM; IC50 (Steroid 21-hydroxylase): > 10000 nM; IC50 (Cytochrome P450 3A4): > 50000 nM; IC50 (Cytochrome P450 2C9): 4700 nM; IC50 (Cytochrome P450 2D6): > 50000 nM
17 | CC(C)(O)c1cncc(-n2ncc3cc(C(F)(F)F)ccc32)c1 | 507 to 510 nM | 1200 to 1240 nM | < 20 mL/min/kg | 2 | –
18 | Cc1nn(-c2cncc(C(C)(C)O)c2)c2ccccc12 | 33.5 to 34 nM | 779 to 780 nM | – | 44 | –
19 | CC(C)(O)c1cncc(-n2ncc3ccc(Cl)cc32)c1 | 528 to 530 nM | 8300 to 8330 nM | – | >16 | –
20 | Fc1cncc(-n2ncc3cc(F)ccc32)c1 | 456 to 460 nM | 8300 to 8330 nM | 85 mL/min/kg | >18 | –
21 | CC(C)(O)c1cncc(-n2ncc3c(F)cccc32)c1 | 7.58 to 8 nM | 149 to 150 nM | 64 mL/min/kg | 19 | –
22 | Cc1cccc2c1cnn2-c1cncc(C(C)(C)O)c1 | 7.77 to 8 nM | 210 nM | – | 27 | –
23 | CC(C)(O)c1cncc(-n2nc(C3CC3)c3ccccc32)c1 | 760 to 763 nM | 8300 to 8330 nM | – | >11 | –
24 | Cc1ccc2c(cnn2-c2cncc(C(C)(C)O)c2)c1 | 97.9 to 98 nM | 916 to 920 nM | – | 9 | –
25 | CC(O)(c1cncc(-n2ncc3cc(F)ccc32)c1)C(F)(F)F (configuration not stated) | 2 to 2.13 nM | 47 to 47.4 nM | 230 mL/min/kg | 24 | –
26 | CC(C)(O)c1cncc(-n2ncc3ccc(C(F)(F)F)cc32)c1 | 2300 nM | 8300 to 8330 nM | – | >4 | –
27 | CC(C)(O)c1cncc(-n2ncc3c(Cl)ccc(F)c32)c1 | 0.2 to 0.4 nM | 1.1 to 7.72 nM | – | 5 - 20 | –
28 | COC(=O)c1cncc(-n2ncc3cc(F)ccc32)c1 | 31 nM | 520 nM | – | 17 | –
